Reference: patent US20260355323A1, “CEREBLON-RECRUITING BCL-XL/BCL-2 DUAL DEGRADERS” (University of Florida Research Foundation, Incorporated, priority 2022, published 2026)

What was measured:
[1] = tested on: MOLT-4 acute lymphoblastic leukemia cells; experiment: Cell viability, tetrazolium-based MTS assay, MOLT-4; conditions: Homo sapiens, MOLT-4, 48 h; read-out: Anti-Cancer Activity EC50 (48 hr), MOLT-4
Description: (§1) Acute lymphoblastic leukemia cells (MOLT-4 and RS4;11) were incubated with increasing concentrations of Bcl-xL/Bcl-2 degraders for 48 h. Cell viability was measured by tetrazolium-based MTS assay.

[2] = tested on: RS4;11 acute lymphoblastic leukemia cells; experiment: Cell viability, tetrazolium-based MTS assay, RS4;11; conditions: Homo sapiens, RS4;11, 48 h, read-out: Anti-Cancer Activity EC50 (48 hr), RS4
Description: as §1

SMILES	EC50 [1] [nM]	EC50 [2] [nM]	IC50 [2] [nM]
CC1(CN2CCN(c3ncc(C(=O)NCCNc4cccc5c4C(=O)N(C4CCC(=O)NC4=O)C5=O)cn3)CC2)CCC(c2ccc(Cl)cc2)=C(CN2CCN(c3ccc(C(=O)NS(=O)(=O)c4ccc(N[C@H](CCN5CCOCC5)CSc5ccccc5)c(S(=O)(=O)C(F)(F)F)c4)cc3)CC2)C1 (stereo partly drawn) [Compound 19, 2-(4-((4′-chloro-4-methyl-6-((4-(4-(((4-(((R)-4-morpholino-1-(phenylthio)butan-2-yl)amino)-3-((trifluoromethyl)sulfonyl)phenyl)sulfonyl)carbamoyl)phenyl)piperazin-1-yl)methyl)-2,3,4,5-tetrahydro-[1,1′-biphenyl]-4-yl)methyl)piperazin-1-yl)-N-(2-((2-(2,6-dioxopiperidin-3-yl)-1,3-dioxoisoindolin-4-yl)amino)ethyl)pyrimidine-5-carboxamide]	1 to 10	10 to 100	–
CC1(CN2CCCN(c3ccc4c(c3)CN(C3CCC(=O)NC3=O)C4=O)CC2)CCN(C[C@]2(C)CCC(c3ccc(Cl)cc3)=C(CN3CCN(c4ccc(C(=O)NS(=O)(=O)c5ccc(N[C@H](CCN6CCCOCC6)CSc6ccccc6)c(S(=O)(=O)C(F)(F)F)c5)cc4)CC3)C2)CC1 (stereo partly drawn) [Compound 136, N-((4-(((R)-4-(1,4-oxazepan-4-yl)-1-(phenylthio)butan-2-yl)amino)-3-((trifluoromethyl)sulfonyl)phenyl)sulfonyl)-4-(4-(((4R)-4′-chloro-4-((4-((4-(2-(2,6-dioxopiperidin-3-yl)-1-oxoisoindolin-5-yl)-1,4-diazepan-1-yl)methyl)-4-methylpiperidin-1-yl)methyl)-4-methyl-3,4,5,6-tetrahydro-[1,1′-biphenyl]-2-yl)methyl)piperazin-1-yl)benzamide]	< 1	< 1	–
C[C@@]1(CN2CCC(CN3CCN(c4ccc(C(=O)N[C@H]5CCC(=O)NC5=O)c(F)c4)CC3)CC2)CCC(c2ccc(Cl)cc2)=C(CN2CCN(c3ccc(C(=O)NS(=O)(=O)c4ccc(N[C@H](CCN5CCCOCC5)CSc5ccccc5)c(S(=O)(=O)C(F)(F)F)c4)cc3)CC2)C1 [Compound 137, 4-(4-((1-(((R)-6-((4-(4-(((4-(((R)-4-(1,4-oxazepan-4-yl)-1-(phenylthio)butan-2-yl)amino)-3-((trifluoromethyl)sulfonyl)phenyl)sulfonyl)carbamoyl)phenyl)piperazin-1-yl)methyl)-4′-chloro-4-methyl-2,3,4,5-tetrahydro-[1,1′-biphenyl]-4-yl)methyl)piperidin-4-yl)methyl)piperazin-1-yl)-N-((S)-2,6-dioxopiperidin-3-yl)-2-fluorobenzamide]	1 to 10	1 to 10	–
C[C@@]1(CN2CCC(CN3CCN(c4ccc(C(=O)N[C@@H]5CCC(=O)NC5=O)c(F)c4)CC3)CC2)CCC(c2ccc(Cl)cc2)=C(CN2CCN(c3ccc(C(=O)NS(=O)(=O)c4ccc(N[C@H](CCN5CCCOCC5)CSc5ccccc5)c(S(=O)(=O)C(F)(F)F)c4)cc3)CC2)C1 [Compound 138, 4-(4-((1-(((R)-6-((4-(4-(((4-(((R)-4-(1,4-oxazepan-4-yl)-1-(phenylthio)butan-2-yl)amino)-3-((trifluoromethyl)sulfonyl)phenyl)sulfonyl)carbamoyl)phenyl)piperazin-1-yl)methyl)-4′-chloro-4-methyl-2,3,4,5-tetrahydro-[1,1′-biphenyl]-4-yl)methyl)piperidin-4-yl)methyl)piperazin-1-yl)-N-((R)-2,6-dioxopiperidin-3-yl)-2-fluorobenzamide]	1 to 10	1 to 10	–

Other lines, results leading:

EC50 [1] [nM]	EC50 [2] [nM]	IC50 [2] [nM]	SMILES
1 to 10	10 to 100	–	CC1(CN2CCN(c3ncc(C(=O)NCCCCNc4cccc5c4C(=O)N(C4CCC(=O)NC4=O)C5=O)cn3)CC2)CCC(c2ccc(Cl)cc2)=C(CN2CCN(c3ccc(C(=O)NS(=O)(=O)c4ccc(N[C@H](CCN5CCOCC5)CSc5ccccc5)c(S(=O)(=O)C(F)(F)F)c4)cc3)CC2)C1 (stereo partly drawn) [Compound 20, 2-(4-((4′-chloro-4-methyl-6-((4-(4-(((4-(((R)-4-morpholino-1-(phenylthio)butan-2-yl)amino)-3-((trifluoromethyl)sulfonyl)phenyl)sulfonyl)carbamoyl)phenyl)piperazin-1-yl)methyl)-2,3,4,5-tetrahydro-[1,1′-biphenyl]-4-yl)methyl)piperazin-1-yl)-N-(4-((2-(2,6-dioxopiperidin-3-yl)-1,3-dioxoisoindolin-4-yl)amino)butyl)pyrimidine-5-carboxamide]
10 to 100	–	10000 to 100000	CC1(CN2CCN(c3ncc(C(=O)NCCCCCCNc4cccc5c4C(=O)N(C4CCC(=O)NC4=O)C5=O)cn3)CC2)CCC(c2ccc(Cl)cc2)=C(CN2CCN(c3ccc(C(=O)NS(=O)(=O)c4ccc(N[C@H](CCN5CCOCC5)CSc5ccccc5)c(S(=O)(=O)C(F)(F)F)c4)cc3)CC2)C1 (stereo partly drawn) [Compound 21, 2-(4-((4′-chloro-4-methyl-6-((4-(4-(((4-(((R)-4-morpholino-1-(phenylthio)butan-2-yl)amino)-3-((trifluoromethyl)sulfonyl)phenyl)sulfonyl)carbamoyl)phenyl)piperazin-1-yl)methyl)-2,3,4,5-tetrahydro-[1,1′-biphenyl]-4-yl)methyl)piperazin-1-yl)-N-(6-((2-(2,6-dioxopiperidin-3-yl)-1,3-dioxoisoindolin-4-yl)amino)hexyl)pyrimidine-5-carboxamide]
10 to 100	10 to 100	–	CC1(CN2CCN(c3ccc(OCCCCCN4CCN(c5cccc6c5C(=O)N(C5CCC(=O)NC5=O)C6=O)CC4)cn3)CC2)CCC(c2ccc(Cl)cc2)=C(CN2CCN(c3ccc(C(=O)NS(=O)(=O)c4ccc(N[C@H](CCN5CCOCC5)CSc5ccccc5)c(S(=O)(=O)C(F)(F)F)c4)cc3)CC2)C1 (stereo partly drawn) [Compound 22, 4-(4-((4′-chloro-4-((4-(5-((5-(4-(2-(2,6-dioxopiperidin-3-yl)-1,3-dioxoisoindolin-4-yl)piperazin-1-yl)pentyl)oxy)pyridin-2-yl)piperazin-1-yl)methyl)-4-methyl-3,4,5,6-tetrahydro-[1,1′-biphenyl]-2-yl)methyl)piperazin-1-yl)-N-((4-(((R)-4-morpholino-1-(phenylthio)butan-2-yl)amino)-3-22 ((trifluoromethyl)sulfonyl)phenyl)sulfonyl)benzamide]
10000 to 100000	10 to 100	–	CC1(CN2CCN(c3ccc(C#CCCCN4CCN(c5cccc6c5C(=O)N(C5CCC(=O)NC5=O)C6=O)CC4)cn3)CC2)CCC(c2ccc(Cl)cc2)=C(CN2CCN(c3ccc(C(=O)NS(=O)(=O)c4ccc(N[C@H](CCN5CCOCC5)CSc5ccccc5)c(S(=O)(=O)C(F)(F)F)c4)cc3)CC2)C1 (stereo partly drawn) [Compound 23, 4-(4-((4′-chloro-4-((4-(5-(5-(4-(2-(2,6-dioxopiperidin-3-yl)-1,3-26 dioxoisoindolin-4-yl)piperazin-1-yl)pent-1-yn-1-yl)pyridin-2-yl)piperazin-1-yl)methyl)-4-methyl-3,4,5,6-tetrahydro-[1,1′-biphenyl]-2-yl)methyl)piperazin-1-yl)-N-((4-(((R)-4-morpholino-1-(phenylthio)butan-2-yl)amino)-3-28 ((trifluoromethyl)sulfonyl)phenyl)sulfonyl)benzamide]
